Bridge positions count the residues as written; N and C are the ends. Ends that are not written are not given here.
What was measured:
[1] = test system: muscle or muscle cells; experiment: suppression of insulin action (insulin action suppressing activity); conditions: qualitative statement; no data or test conditions printed
Text: The phrase "insulin action suppressing activity", as used throughout this Specification and the appendant claims, includes, but is not limited to, the ability of a polypeptide of this invention to suppress the effect which insulin has upon muscle or muscle cells. By way of example and not of limitation, the polypeptides of this invention suppress insulin-stimulated glycogen synthesis in muscle or muscle cells.

[2] = test system: isolated soleus muscle; conditions: Leighton et al. 1988, Cooper et al. 1988; cited from earlier work

Bolton-Hunter derivative of amylin: Bolton-Hunter derivative of amylin of the drawn formula wherein W is SEQUENCE ID NO:1 (KCNTATCATQRLANFLVHSSNNFGAILSSTNVGSNTY; not fully specified (C-terminus, bridges); cysteine pairing not given here; also: Bolton-Hunter reagent derivative, attachment site not given here; UniProt P10997 34-70, looked up)
suppress insulin action [1]: will not suppress insulin action

amylin: 37 amino acid polypeptide with a disulfide bond between Cys 2 and 7; secretory product of pancreatic β cells (KCNTATCATQRLANFLVHSSNNFGAILSSTNVGSNTY; disulfide 2-7; not fully specified (C-terminus); UniProt P10997 34-70, looked up)
insulin-stimulated glycogen synthesis [2]: suppresses insulin-stimulated glycogen synthesis
